According to publication PMC8070018, “Human Lanosterol 14-Alpha Demethylase (CYP51A1) Is a Putative Target for Natural Flavonoid Luteolin 7,3′-Disulfate” (Molecules, 2021):
Where two headings read alike, the source gives them in different places. One block for each compound: values may come before it.

How the values were obtained:
[1] = target: T1, human CYP51A1 (Homo sapiens, UniProt Q16850); details: cited from earlier work; for affinity: direct coordination with heme iron; for Kd: read-out: Kdapp
T1 construct: made in house
T1 sequence (Q16850 1-509): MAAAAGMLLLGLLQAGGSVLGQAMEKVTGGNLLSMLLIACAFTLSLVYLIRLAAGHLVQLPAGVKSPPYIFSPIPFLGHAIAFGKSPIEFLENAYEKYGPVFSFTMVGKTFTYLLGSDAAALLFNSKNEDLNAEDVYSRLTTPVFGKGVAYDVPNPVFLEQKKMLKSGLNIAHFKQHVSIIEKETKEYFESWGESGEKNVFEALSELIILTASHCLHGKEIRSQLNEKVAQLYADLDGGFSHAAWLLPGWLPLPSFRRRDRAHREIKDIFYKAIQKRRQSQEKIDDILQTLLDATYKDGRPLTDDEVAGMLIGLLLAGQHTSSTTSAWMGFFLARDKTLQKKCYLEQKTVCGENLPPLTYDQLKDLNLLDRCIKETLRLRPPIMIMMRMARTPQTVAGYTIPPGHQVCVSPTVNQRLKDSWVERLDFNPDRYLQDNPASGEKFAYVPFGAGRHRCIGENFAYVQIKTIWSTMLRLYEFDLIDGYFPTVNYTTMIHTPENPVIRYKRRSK

[2] = tested on: CYP2C19; details: cited from earlier work
[3] = tested on: CYP3A4; details: cited from earlier work
[4] = tested on: CYP2C9; parameters: method as in PMID 32661014; details: comparable to positive control sulfaphenazole; cited from earlier work
[5] = target: T1, human CYP51A1; test: Surface plasmon resonance binding to immobilized CYP51A1; details: SPR; for Kd: immobilized CYP51A1, read-out: Kd (equilibrium dissociation constant)
[6] = target: T1, human CYP51A1; test: Spectrophotometric titration (difference spectra) of CYP51A1 in the presence of lanosterol; assay type: binding; details: for Kd: spectral titration, CYP51A1 4 μM, lanosterol 5 μM, pH 7.4, room temperature, read-out: apparent dissociation constant (Kdapp); for spectral response in the difference spectrum of CYP51A1: titration in the presence of lanosterol, baicalein and luteolin 7,3′-disulfate up to 30 μM, luteolin up to 15 μM
Procedure: Spectrophotometric titration was used to determine the apparent dissociation constants (Kdapp) for the enzyme–ligand complexes. The spectral measurements were performed on Cary Series UV-Vis-NIR (Agilent Technologies, Santa Clara, CA, USA) spectrophotometer using tandem quartz cuvettes (1 cm optical path) to exclude the absorption of ligands. Natural substrate, lanosterol, at final concentration 5 μM was added before the titration to the CYP51A1 (final concentration 4 μM) in 50 mM potassium phosphate buffer, pH 7.4. […] The difference spectra were recorded after each addition of ligand at room temperature in the range of 350–500 nm. The apparent dissociation constants were determined by plotting the absorbance changes in the difference spectra versus the concentration of free ligand and evaluated by using the Hill equation (OriginPro 8.1 statistical data analysis package): Aobs=Amax×(S×n/Kdapp×n+S×n), where Aobs—the observed change in the absorption, Amax—the absorbance change at ligand saturation, Kdapp—the apparent dissociation constant for the ligand–enzyme complex, S—the ligand concentration, n—a Hill coefficient.

[7] = target: T2, human CYP51A1 (lanosterol 14α-demethylase) (Homo sapiens, UniProt Q16850); test: Lanosterol 14α-demethylase activity of CYP51A1 in the reconstituted system; assay type: biochemical; details: for Relative Activity: CYP51A1 0.5 μM, CPR 2.0 μM, lanosterol 50 μM
T2 construct: made in house
T2 sequence (Q16850 1-509): T1 sequence (Q16850 1-509)

[8] = tested on: CYP1A2, CYP3A, CYP2B6, CYP2E1 and CYP2D6; parameters: method as in PMID 28872689, PMID 18191104; details: range over CYP1A2, CYP3A; cited from earlier work
[9] = tested on: CYP2D6; parameters: method as in PMID 32942157; details: 20 μM luteolin; cited from earlier work
[10] = tested on: CYP1A, CYP2B and CYP3A4; details: range over CYP1A; cited from earlier work
[11] = 25 °C, Two state reaction model, n = 3
[12] = 25 °C, Langmuir 1:1 model, n = 3, read-out: koff (dissociation rate constant)
[13] = 25 °C, Langmuir 1:1 model, n = 3, read-out: kon (association rate constant)
[14] = concentration-dependent, up to 30 μM

SMILES: CCCN(CCc1ccc(Cl)c(Cl)c1)CC(O)c1cccnc1 (stereo not drawn) [LK-935, 2-((3,4-Dichlorophenethyl)(Propyl)Amino)-1-(Pyridin-3-Yl)Ethanol]
affinity [1]: submicromolar range

SMILES: O=c1cc(-c2ccccc2)oc2cc(OS(=O)(=O)O)cc(O)c12 [chrysin 7-sulfate]
inhibition effect [2]: slight inhibition effect
inhibition effect [3]: slight inhibition effect
IC50 [4]: 2.7 µM

koff2 (backward rate constant for CP ↔ CP* transition) [5, 11]: koff2 (1/s × 10^−4) = 14 ± 2
kon2 (forward rate constant for CP ↔ CP* transition) [5, 11]: kon2 (1/s × 10^−4) = 33 ± 4
koff ([5]; 25 °C, Two state reaction model, n = 3, read-out: koff1 (dissociation rate constant)): 0.019 s⁻¹
kon ([5]; 25 °C, Two state reaction model, n = 3, read-out: kon1 (association rate constant)): 282 M⁻¹ s⁻¹
Kd ([5]; 25 °C): 20 µM
Kd [6]: 5.1 ± 0.5 µM
spectral response in the difference spectrum of CYP51A1 [6]: reverse type I spectral response
Relative Activity ([7]; compound 25 μM): 92.6%
SMILES: O=c1cc(-c2ccc(O)c(O)c2)oc2cc(O)cc(O)c12 [luteolin]
IC50 [8]: 1.6 to 133 µM
O-demethylation of 3-[2-(N,N-diethyl-N-methyl-ammonium)ethyl]-7-methoxy-4-methylcoumarin inhibited to [9]: 40%
inhibition in reaction with dextromethorphan [9]: < 5%

SMILES: C[C@]12CC[C@H](O)CC1=CC[C@@H]1[C@@H]2CC[C@]2(C)C(c3cccnc3)=CC[C@@H]12 [abiraterone]
Kd [1]: 22 µM

SMILES: CC(C)=CCC[C@@H](C)[C@H]1CC[C@@]2(C)C3=C(CC[C@]12C)[C@@]1(C)CC[C@H](O)C(C)(C)[C@@H]1CC3 [lanosterol]
koff [5, 12]: 0.0001 s⁻¹
kon [5, 13]: 41.4 M⁻¹ s⁻¹
Kd ([5]; 25 °C): 2.4 µM

SMILES: C[C@]12CC[C@H](O)CC1=CC[C@@H]1[C@@H]2CC[C@]2(C)C(n3cnc4ccccc43)=CC[C@@H]12 [galeterone]
Kd [1]: 16 µM

koff [5, 12]: 0.00084 s⁻¹
kon [5, 13]: 294 M⁻¹ s⁻¹
Kd ([5]; 25 °C): 2.9 µM
association rate of the CYP51A1 complex compared to lanosterol ([5]; relative to complex formation with lanosterol): seven times faster
dissociation rate of the CYP51A1 complex compared to lanosterol ([5]; relative to complex with lanosterol): about eight times higher
Relative Activity ([7]; compound 25 μM): 49.9%
inhibition at 25 µM ([7]; compound 25 μM, read-out: level of inhibition): 50.1%
IC50 ([7]; reconstituted system, 5, 10, 25, 50 and 100 μM tested, read-out: apparent IC50): > 25 µM
SMILES: O=c1cc(-c2ccc(O)c(OS(=O)(=O)O)c2)oc2cc(OS(=O)(=O)O)cc(O)c12 [luteolin 7,3′-disulfate]
spectral response in the difference spectrum of CYP51A1 [6]: does not cause changes in the difference spectrum

SMILES: O=c1cc(-c2ccccc2)oc2cc(O)c(O)c(O)c12 [baicalein]
Kd ([5]; 25 °C): 12.5 µM
Kd [6]: 8.2 ± 0.4 µM
spectral response in the difference spectrum of CYP51A1 [6]: reverse type I spectral response
IC50 [10]: 0.5 to 36 µM

SMILES: Clc1ccc(COC(Cn2ccnc2)c2ccc(Cl)cc2Cl)cc1 (stereo not drawn) [econazole]
affinity [1]: submicromolar range

SMILES: O=c1c(O)c(-c2ccc(O)c(OS(=O)(=O)O)c2)oc2cc(O)cc(O)c12 [quercetin 3′-sulfate]
inhibition effect [2, 14]: ≤ 50%
inhibition effect [3, 14]: ≤ 50%
